The values that follow are results of earlier work, collected in patent US8003670B2, “Aminoalkoxy aryl sulfonamide compounds and their use as 5-HT6 ligands” (Suven Life Sciences Limited, priority 2007, dated 2011).

SMILES strings stand for the structures.

This data set deals with animal models for schizophrenia. The note with it: literature (Pouzet et al. 2002); cited from earlier work.

In the case of `COc1ccc(NS(=O)(=O)c2sc3ccc(Cl)cc3c2C)cc1N1CCNCC1` [SB-271046, 5-Chloro-N-(4-methoxy-3-piperazin-1-ylphenyl)-3-methyl-2-benzothiophenesulfonamide], the “Activity in animal tests related to positive or negative symptoms of schizophrenia” value was “inactive”.
